We go through 29 molecules from patent US20080175794A1, “Substituted Pyridazinyl- and Pyrimidinyl-Quinolin-4-Ylamine Analogues” (NEUROGEN CORPORATION, priority 2005, published 2008).

The target in the test is T1, human capsaicin receptor (Homo sapiens, UniProt Q8NER1).
T1 construct: expressed in transfected cells
As to the kind of experiment: Calcium mobilization assay, determination of antagonist activity (Example 6). Format: cell-based. The conditions noted are these: Table III; assay provided in Example 6; cells expressing human capsaicin receptor, capsaicin at EC50. In short, it runs like this: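 Stable HEK293 clones expressing full-length human capsaicin receptor, loaded with Fluo-3 AM in KRH buffer pH 7.4 (1–2 h, 37 °C). Test compound (1–5 μM final) preincubated 0.5–6 h at room temperature in the dark, then capsaicin added at its EC50. FLIPR/Fluoroskan calcium signal; IC50 as concentration halving the capsaicin response.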
Background: Calcium assays in cells follow changes in intracellular calcium, usually with a dye or a luminescent sensor.

SMILES strings stand for the structures.

T1 sequence (Q8NER1 whole entry): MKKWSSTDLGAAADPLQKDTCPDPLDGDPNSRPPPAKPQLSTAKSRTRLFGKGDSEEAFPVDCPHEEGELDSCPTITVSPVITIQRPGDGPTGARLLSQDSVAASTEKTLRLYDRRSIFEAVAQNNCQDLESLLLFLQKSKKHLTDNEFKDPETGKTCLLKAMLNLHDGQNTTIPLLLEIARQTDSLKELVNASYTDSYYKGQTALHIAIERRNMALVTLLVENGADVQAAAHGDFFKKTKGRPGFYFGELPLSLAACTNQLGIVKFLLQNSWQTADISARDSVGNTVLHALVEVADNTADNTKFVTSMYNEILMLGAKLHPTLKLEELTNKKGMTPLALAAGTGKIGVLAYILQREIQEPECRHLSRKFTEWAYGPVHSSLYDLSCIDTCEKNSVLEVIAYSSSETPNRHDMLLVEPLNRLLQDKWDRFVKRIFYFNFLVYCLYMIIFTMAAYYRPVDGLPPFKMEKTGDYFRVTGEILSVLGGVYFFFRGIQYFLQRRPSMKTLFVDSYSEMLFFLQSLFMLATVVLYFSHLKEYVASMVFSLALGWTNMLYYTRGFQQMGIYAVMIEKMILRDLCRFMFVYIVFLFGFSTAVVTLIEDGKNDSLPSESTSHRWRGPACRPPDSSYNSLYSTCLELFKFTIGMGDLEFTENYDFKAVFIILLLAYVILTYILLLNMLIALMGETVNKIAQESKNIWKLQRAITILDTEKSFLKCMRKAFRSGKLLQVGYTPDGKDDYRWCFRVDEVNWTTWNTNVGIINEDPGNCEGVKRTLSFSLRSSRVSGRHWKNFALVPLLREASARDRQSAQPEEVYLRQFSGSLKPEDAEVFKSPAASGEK

As to `CN(C)C1CCCN(c2cc(C(F)(F)F)c(-c3cnc4c(Nc5ccc(C(F)(F)F)cn5)ccnc4n3)nn2)C1` (centres unmarked) [Compound 132, 3-{6-[3-(dimethylamino)piperidin-1-yl]-4-(trifluoromethyl)pyridazin-3-yl}-N-[5-(trifluoromethyl)pyridin-2-yl]pyrido[2,3-b]pyrazin-8-amine], the IC50 was less than 1000 nM.

Consider `COCC(C)Nc1cc(C(F)(F)F)c(-c2cnc3c(Nc4ccc(C(F)(F)F)cn4)ccnc3n2)nn1` (centres unmarked) [Compound 165, 3-{6-[(2-methoxy-1-methylethyl)amino]-4-(trifluoromethyl)pyridazin-3-yl}-N-[5-(trifluoromethyl)pyridin-2-yl]pyrido[2,3-b]pyrazin-8-amine], for which the IC50 is less than 1000 nM.

Regarding `CCN(CC)CCNc1cc(C(F)(F)F)c(-c2cnc3c(Nc4ccc(C(F)(F)F)cn4)ccnc3n2)nn1` [Compound 70, N,N-diethyl-N′-[5-(trifluoromethyl)-6-(8-{[5-(trifluoromethyl)pyridin-2-yl]amino}pyrido[2,3-b]pyrazin-3-yl)pyridazin-3-yl]ethane-1,2-diamine], the IC50 was less than 1000 nM.

On to `CN(C)c1cc(C(F)(F)F)c(-c2cnc3c(Nc4ccc(C(F)(F)F)cn4)ccnc3n2)nn1` [Compound 54, 3-[6-(dimethylamino)-4-(trifluoromethyl)pyridazin-3-yl]-N-[5-(trifluoromethyl)pyridin-2-yl]pyrido[2,3-b]pyrazin-8-amine], for which the IC50 is less than 1000 nM.

In the case of `CN(C)C1CCN(c2cc(C(F)(F)F)c(-c3cnc4c(Nc5ccc(C(F)(F)F)cn5)ccnc4n3)nn2)CC1` [Compound 96, 3-{6-[4-(dimethylamino)piperidin-1-yl]-4-(trifluoromethyl)pyridazin-3-yl}-N-[5-(trifluoromethyl)pyridin-2-yl]pyrido[2,3-b]pyrazin-8-amine], the IC50 is less than 1000 nM.

In the case of `CN(C)C(=O)CN(C)c1cc(C(F)(F)F)c(-c2cnc3c(Nc4ccc(C(F)(F)F)cn4)ccnc3n2)nn1` [Compound 59, N,N,N2-trimethyl-N2-[5-(trifluoromethyl)-6-(8-{[5-(trifluoromethyl)pyridin-2-yl]amino}pyrido[2,3-b]pyrazin-3-yl)pyridazin-3-yl]glycinamide], the IC50 was less than 1000 nM.

For `FC(F)(F)c1ccc(Nc2ccnc3nc(-c4nnc(N5CCCCC5)cc4C(F)(F)F)cnc23)nc1` [Compound 176, 3-[6-piperidin-1-yl-4-(trifluoromethyl)pyridazin-3-yl]-N-[5-(trifluoromethyl)pyridin-2-yl]pyrido[2,3-b]pyrazin-8-amine], the IC50 was less than 1000 nM.

Consider `OCCNc1cc(C(F)(F)F)c(-c2cnc3c(Nc4ccc(C(F)(F)F)cn4)ccnc3n2)nn1` [Compound 168, 2-{[5-(trifluoromethyl)-6-(8-{[5-(trifluoromethyl)pyridin-2-yl]amino}pyrido[2,3-b]pyrazin-3-yl)pyridazin-3-yl]amino}ethanol], for which the IC50 is less than 1000 nM.

In the case of `OC1CCN(c2cc(C(F)(F)F)c(-c3cnc4c(Nc5ccc(C(F)(F)F)cn5)ccnc4n3)nn2)CC1` [Compound 196, 1-[5-(trifluoromethyl)-6-(8-{[5-(trifluoromethyl)pyridin-2-yl]amino}pyrido[2,3-b]pyrazin-3-yl)pyridazin-3-yl]piperidin-4-ol], the IC50 was less than 1000 nM.

Turning to `CC(O)CNc1cc(C(F)(F)F)c(-c2cnc3c(Nc4ccc(C(F)(F)F)cn4)ccnc3n2)nn1` (centres unmarked) [Compound 116, 1-{[5-(trifluoromethyl)-6-(8-{[5-(trifluoromethyl)pyridin-2-yl]amino}pyrido[2,3-b]pyrazin-3-yl)pyridazin-3-yl]amino}propan-2-ol], the IC50 was less than 1000 nM.

Take `O[C@H]1CCN(c2cc(C(F)(F)F)c(-c3cnc4c(Nc5ccc(C(F)(F)F)cn5)ccnc4n3)nn2)C1` [Compound 193]: the IC50 was less than 1000 nM.

`CN(CC(N)=O)c1cc(C(F)(F)F)c(-c2cnc3c(Nc4ccc(C(F)(F)F)cn4)ccnc3n2)nn1` [Compound 57, N2-methyl-N2-[5-(trifluoromethyl)-6-(8-{[5-(trifluoromethyl)pyridin-2-yl]amino}pyrido[2,3-b]pyrazin-3-yl)pyridazin-3-yl]glycinamide]: the IC50 is less than 1000 nM.

As to `FC(F)(F)c1ccnnc1-c1cnc2c(Nc3cnc4ccccc4n3)ccnc2n1` [Compound 45, N-2-quinoxalinyl-3-[4-(trifluoromethyl)-3-pyridazinyl]pyrido[2,3-b]pyrazin-8-amine], the IC50 was less than 1000 nM.

`CN(C)CCCNc1cc(C(F)(F)F)c(-c2cnc3c(Nc4ccc(C(F)(F)F)cn4)ccnc3n2)nn1` [Compound 139, N,N-dimethyl-N′-[5-(trifluoromethyl)-6-(8-{[5-(trifluoromethyl)pyridin-2-yl]amino}pyrido[2,3-b]pyrazin-3-yl)pyridazin-3-yl]propane-1,3-diamine]: the IC50 is less than 1000 nM.

On to `CN(CCO)c1cc(C(F)(F)F)c(-c2cnc3c(Nc4ccc(C(F)(F)F)cn4)ccnc3n2)nn1` [Compound 135, 2-{methyl[5-(trifluoromethyl)-6-(8-{[5-(trifluoromethyl)pyridin-2-yl]amino}pyrido[2,3-b]pyrazin-3-yl)pyridazin-3-yl]amino}ethanol], for which the IC50 was less than 1000 nM.

Turning to `CCCC(C)Nc1cc(C(F)(F)F)c(-c2cnc3c(Nc4ccc(C(F)(F)F)cn4)ccnc3n2)nn1` (centres unmarked) [Compound 158, 3-{6-[(1-methylbutyl)amino]-4-(trifluoromethyl)pyridazin-3-yl}-N-[5-(trifluoromethyl)pyridin-2-yl]pyrido[2,3-b]pyrazin-8-amine], the IC50 is less than 1000 nM.

Consider `CC1(C)CCN1c1cc(C(F)(F)F)c(-c2cnc3c(Nc4ccc(C(F)(F)F)cn4)ccnc3n2)nn1` [Compound 131, 3-[6-(2,2-dimethylazetidin-1-yl)-4-(trifluoromethyl)pyridazin-3-yl]-N-[5-(trifluoromethyl)pyridin-2-yl]pyrido[2,3-b]pyrazin-8-amine], for which the half-inhibitory concentration (IC50) was less than 1000 nM.

With `NC(=O)c1cc(C(F)(F)F)c(-c2cnc3c(Nc4ccc(C(F)(F)F)cn4)ccnc3n2)nn1` [Compound 60, 5-(trifluoromethyl)-6-(8-{[5-(trifluoromethyl)pyridin-2-yl]amino}pyrido[2,3-b]pyrazin-3-yl)pyridazine-3-carboxamide], the IC50 was less than 1000 nM.

Consider `CN1CCN(c2cc(C(F)(F)F)c(-c3cnc4c(Nc5ccc(C(F)(F)F)cn5)ccnc4n3)nn2)CC1` [Compound 145, 3-[6-(4-methylpiperazin-1-yl)-4-(trifluoromethyl)pyridazin-3-yl]-N-[5-(trifluoromethyl)pyridin-2-yl]pyrido[2,3-b]pyrazin-8-amine], for which the IC50 was less than 1000 nM.

Take `FC(F)(F)c1ccc(Nc2ccnc3nc(-c4nnc(NCC5CC5)cc4C(F)(F)F)cnc23)nc1` [Compound 103, 3-{6-[(cyclopropylmethyl)amino]-4-(trifluoromethyl)pyridazin-3-yl}-N-[5-(trifluoromethyl)pyridin-2-yl]pyrido[2,3-b]pyrazin-8-amine]: the IC50 is less than 1000 nM.

As for `CNC(=O)CN(C)c1cc(C(F)(F)F)c(-c2cnc3c(Nc4ccc(C(F)(F)F)cn4)ccnc3n2)nn1` [Compound 58, N,N2-dimethyl-N2-[5-(trifluoromethyl)-6-(8-{[5-(trifluoromethyl)pyridin-2-yl]amino}pyrido[2,3-b]pyrazin-3-yl)pyridazin-3-yl]glycinamide], the IC50 was less than 1000 nM.

`COCCNc1cc(C(F)(F)F)c(-c2cnc3c(Nc4ccc(C(F)(F)F)cn4)ccnc3n2)nn1` [Compound 163, 3-{6-[(2-methoxyethyl)amino]-4-(trifluoromethyl)pyridazin-3-yl}-N-[5-(trifluoromethyl)pyridin-2-yl]pyrido[2,3-b]pyrazin-8-amine]: the IC50 is less than 1000 nM.

For `FC(F)(F)c1ccc(Nc2ccnc3nc(-c4nnc(NC5CCCC5)cc4C(F)(F)F)cnc23)nc1` [Compound 109, 3-[6-(cyclopentylamino)-4-(trifluoromethyl)pyridazin-3-yl]-N-[5-(trifluoromethyl)pyridin-2-yl]pyrido[2,3-b]pyrazin-8-amine], the IC50 is less than 1000 nM.

For `FC(F)(F)c1ccc(Nc2ccnc3nc(-c4nnc(NCCCCN5CCCC5)cc4C(F)(F)F)cnc23)nc1` [Compound 84, 3-{6-[(4-pyrrolidin-1-ylbutyl)amino]-4-(trifluoromethyl)pyridazin-3-yl}-N-[5-(trifluoromethyl)pyridin-2-yl]pyrido[2,3-b]pyrazin-8-amine], the half-inhibitory concentration (IC50) was less than 1000 nM.

Turning to `CCN(CCO)c1cc(C(F)(F)F)c(-c2cnc3c(Nc4ccc(C(F)(F)F)cn4)ccnc3n2)nn1` [Compound 194], the IC50 was less than 1000 nM.

For `CCCN(CCO)c1cc(C(F)(F)F)c(-c2cnc3c(Nc4ccc(C(F)(F)F)cn4)ccnc3n2)nn1` [Compound 134, 2-{propyl[5-(trifluoromethyl)-6-(8-{[5-(trifluoromethyl)pyridin-2-yl]amino}pyrido[2,3-b]pyrazin-3-yl)pyridazin-3-yl]amino}ethanol], the IC50 was less than 1000 nM.

`CCOC(=O)CN(C)c1cc(C(F)(F)F)c(-c2cnc3c(Nc4ccc(C(F)(F)F)cn4)ccnc3n2)nn1` [Compound 187, ethyl N-methyl-N-[5-(trifluoromethyl)-6-(8-{[5-(trifluoromethyl)pyridin-2-yl]amino}pyrido[2,3-b]pyrazin-3-yl)pyridazin-3-yl]glycinate]: the IC50 was less than 1000 nM.

As to `COC1CCN(c2cc(C(F)(F)F)c(-c3cnc4c(Nc5ccc(C(F)(F)F)cn5)ccnc4n3)nn2)CC1` [Compound 188, 3-[6-(4-methoxypiperidin-1-yl)-4-(trifluoromethyl)pyridazin-3-yl]-N-[5-(trifluoromethyl)pyridin-2-yl]pyrido[2,3-b]pyrazin-8-amine], the IC50 was less than 1000 nM.

For the molecule `CCCN(C)c1cc(C(F)(F)F)c(-c2cnc3c(Nc4ccc(C(F)(F)F)cn4)ccnc3n2)nn1` [Compound 121, 3-{6-[methyl(propyl)amino]-4-(trifluoromethyl)pyridazin-3-yl}-N-[5-(trifluoromethyl)pyridin-2-yl]pyrido[2,3-b]pyrazin-8-amine], the IC50 is less than 1000 nM.

In general, IC50 refers to the point on the concentration scale where inhibition reaches its midpoint.
